According to PMC6264682, “Synthesis and Adrenolytic Activity of New Propanolamines” (Molecules, 2010):
Several values for one entry are separate records, joined by “and”; a condition that tells them apart may be missing. Equal entries are not always repeated. Marks after values point to notes of the source that are not given here.

Assays:
[1] = test system: anesthetized male Wistar rats; assay: Effect on normal electrocardiogram (ECG) in vivo in rats; set-up: species or system rat; conditions: 1 mg∙kg^-1 iv, mean ± SEM
Experimental: The effects on ECG intervals and heart rate were determined for all tested compounds at the same dose of 1 mg∙kg^-1.
Electrocardiographic measurement was carried out using the Ascard B5 Eco apparatus, standard lead II, and paper speed of 50 mm∙s^-1. The tested compounds were administered intravenously in a dose of 1 mg∙kg^-1. The ECG recording was carried out immediately before and 1, 5 and 15 min after administration of the tested compounds. The effect of the compounds on rat ECG recording was calculated according to Cambridge et al..

[2] = test system: adrenaline-induced arrhythmia; assay: Prophylactic antiarrhythmic activity, adrenaline-induced arrhythmia in anesthetized rats; assay type: in vivo, rat; conditions: limits in brackets; for ED50 iv (dose producing 50% inhibition of premature ventricular beats): iv 15 min before adrenaline 20 μg∙kg^-1 iv; for ED50 po (dose producing 50% inhibition of premature ventricular beats): orally (intragastric) 60 min before adrenaline 20 μg∙kg^-1 iv
Experimental: The prophylactic antiarrhythmic activity of compounds 10 and 11 was determined using an adrenaline-induced arrhythmia model of in anesthetized rats.
Arrhythmia was evoked in thiopental (60 mg kg^-1, ip) – anaesthetized rats by iv injection of adrenaline (20 μg kg^-1). The tested compounds were administered intravenously 15 min or orally 60 min before adrenaline. […] The cardiac rhythm disturbances were recorded for 15 min after adrenaline injection. ECGs were analyzed according to the guidelines of the Lambeth Convention on ventricular premature beats (VBs), bigeminy, salvos (less than four successive VBs), ventricular tachycardia (VT, four or more successive VBs), and ventricular fibrillation (VF).

α1-adrenoceptors = assay: Radioligand binding assay, displacement of [3H]Prazosin, rat cerebral cortex; conditions: for Ki: rat cerebral cortex, [3H]Prazosin 0.2 nM, ± SEM
Experimental: (§1) The experiment was carried out on rat cerebral cortex. […] The brains were homogenised in 20 vol of an ice-cold 50 mM Tris–HCl buffer (pH 7.6), and were centrifuged at 20.000 × g for 20 min (0–4 °C). The cell pellet was resuspended in the Tris–HCl buffer and centrifuged again. Radioligand binding assays were performed in plates (MultiScreen/Millipore). The final incubation mixture (final volume 300 μL) consisted of 240 μL of the membrane suspension, 30 μL of [^3H]Prazosin (0.2 nM), [^3H]Clonidine (2 nM) or [^3H]CGP12177 (0.2 nM) solution, and 30 μL of the buffer containing seven to eight concentrations (10^–11–10^–4 M) of the tested compounds. […] The incubation was terminated by rapid filtration over glass fibre filters (Whatman GF/C) using a vacuum manifold (Millipore). The filters were then washed twice with the assay buffer and placed in scintillation vials with a liquid scintillation cocktail. Radioactivity was measured in a WALLAC 1409 DSA liquid scintillation counter. All the assays were made in duplicate. The radioligand binding data were analyzed using an iterative curve-fitting routine (GraphPAD/Prism, Version 3.0, San Diego, CA, USA). Ki values were calculated from the Cheng and Prusoff equation [25].

α2-adrenoceptors = assay: Radioligand binding assay, displacement of [3H]Clonidine, rat cerebral cortex; conditions: [3H]Clonidine 2 nM, ± SEM
Experimental: as §1

[3] = test system: isolated rabbit small intestine; assay: Influence on spontaneous contractions of isolated rabbit ileum; conditions: for Amplitude of contractions / Frequency of contractions: mean ± SEM
Experimental: The influence on isolated rabbit ileum of the investigated compounds on the smooth muscle was investigated on the rabbit small intestine, according to the Magnus’ method modified and described by Orisadipe et al. The white rabbits were sacrificed by cervical dislocation and the small intestine was immediately removed, and cut into strips about 3–4 cm long. The isolated strips were incubated in Krebs solution at 37 °C and aerated with carbogen in special laboratory dishes. The isolated strip of the intestine was placed in a test glass tube with the Krebs solution constantly aerated by carbogen. After 1 hour incubation period, during which the physiological saline solution was changed every 15 min, the influence of the investigated compounds on spontaneous contractions of the rabbit ileum was evaluated. The contraction of the intestine was recorded on a TZ-4100 line recorder via isometric Harvard transducer, at the muscle load of 1 g. The influence of every single dose was recorded for 5 min.

[4] = test system: normotensive anesthetized rats; assay: Influence on blood pressure in normotensive anesthetized rats; assay type: in vivo, rat
Experimental: Hypotensive activity of compounds 10 and 11 was determined after iv and po administration to normotensive anesthetized rats.
Male Wistar normotensive rats were anesthetized with thiopental (50–75 mg kg^-1, ip). The right carotid artery was cannulated with a polyethylene tube, filled with heparin in saline to facilitate pressure measurement using the Datamax apparatus (Columbus Instruments). […]

[5] = time 0 min (immediately before administration, baseline)
[6] = concentration 0 (control before 10^-5 M)
[7] = concentration 0 (control before 10^-6 M)
[8] = concentration 0 (control before 10^-7 M)
[9] = concentration 0 (control before 10^-8 M)
[10] = concentration 0 (control before 10^-9 M)
[11] = po, 2 mg∙kg^-1, from 40 to 90 min

## COc1ccccc1OCCNCC(O)COc1cccc2[nH]ccc12 (racemic) [(R,S)-9, (2R,S)-1-(1H-indol-4-yloxy)-3-(2-(2-methoxyphenoxy)ethylamino)propan-2-ol, reference compound]
[1]; 1 min after administration
  P–Q: […]
  QRS: […]
  Q–T: […]
  heart rate: […]
[1]; 5 min after administration
  QRS: […]
  Q–T: […]
  heart rate: […]
[1]; 15 min after administration
  P–Q: […]
  QRS: […]
  Q–T: […]
  heart rate: […]
[1]; [5]
  P–Q: […]
  QRS: […]
  Q–T: […]
  heart rate: […]
[2]
  ED50 iv (dose producing 50% inhibition of premature ventricular beats): […]
  ED50 po (dose producing 50% inhibition of premature ventricular beats): […]
α1-adrenoceptors
  Ki: […]
α2-adrenoceptors
  Ki: 1.4 ± 0.4 µM

## COc1ccccc1OCCNCC(O)COc1cccc2[nH]c3ccccc3c12 (stereo not shown) [Carvedilol, reference compound]
[1]; [5]
  heart rate: 356.7 ± 21.0 Beats/min

## COCc1cc2[nH]ccc2c(OC)c1OCC(O)CNCCOc1ccccc1OC [Compound 10, (2R,S)-1-(4-Methoxy-6-(methoxymethyl)-1H-indol-5-yloxy)-3-(2-(2-methoxyphenoxy)ethylamino)propan-2-ol]
[3]; 10^-5 M
  increased frequency of contractions: about 8%
  Amplitude of contractions: 1.11 ± 0.09^c g
  Frequency of contractions: 10.70 ± 0.25^a min ^-1
[3]; 10^-6 M
  Amplitude of contractions: 1.10 ± 0.07^c g
  Frequency of contractions: 11.60 ± 0.22 min ^-1
[3]; 10^-7 M
  Amplitude of contractions: 1.29 ± 0.05^a g
  Frequency of contractions: 12.15 ± 0.15 min ^-1
[3]; 10^-8 M
  Amplitude of contractions: 1.31 ± 0.06^b g
  Frequency of contractions: 12.15 ± 0.18 min ^-1
[3]; 10^-9 M
  Amplitude of contractions: 1.56 ± 0.06 g
  Frequency of contractions: 12.14 ± 0.22 min ^-1
[3]; [6]
  Amplitude of contractions: 1.72 ± 0.11 g
  Frequency of contractions: 11.61 ± 0.27 min ^-1
[3]; [7]
  Amplitude of contractions: 1.63 ± 0.10 g
  Frequency of contractions: 12.24 ± 0.25 min ^-1
[3]; [8]
  Amplitude of contractions: 1.55 ± 0.10 g
  Frequency of contractions: 12.05 ± 0.19 min ^-1
[3]; [9]
  Amplitude of contractions: 1.53 ± 0.06 g
  Frequency of contractions: 11.77 ± 0.14 min ^-1
[3]; [10]
  Amplitude of contractions: 1.43 ± 0.06 g
  Frequency of contractions: 12.74 ± 0.20 min ^-1
[3]; range of concentrations 10^-8–10^-5 M
  diminished amplitude of contractions: 14 to 35%
[1]; 1 min after administration
  P–Q: 45.6 ± 1.6^b ms
  QRS: 31.2 ± 0.5^c ms
  Q–T: 92.0 ± 4.2 ms
  heart rate: 334.0 ± 13.0 Beats/min
[1]; 5 min after administration
  P–Q: 46.8 ± 1.6^c ms
  QRS: 31.2 ± 1.0^c ms
  Q–T: 100.0 ± 2.8 ms
  heart rate: 309.6 ± 13.7 Beats/min
[1]; 15 min after administration
  P–Q: 46.4 ± 1.6^c ms
  QRS: 32.4 ± 0.8^d ms
  Q–T: 104.0 ± 1.4^a ms
  heart rate: 297.4 ± 12.4 Beats/min
[1]; [5]
  P–Q: 40.4 ± 0.4 ms
  QRS: 27.6 ± 0.8 ms
  Q–T: 94.4 ± 2.8 ms
  heart rate: 329.4 ± 12.2 Beats/min
[2]
  ED50 iv (dose producing 50% inhibition of premature ventricular beats): 0.35 (0.18–0.72) mg∙kg^-1
  ED50 po (dose producing 50% inhibition of premature ventricular beats): 1.71 mg∙kg^-1 and 1.71 (1.52 ± 1.93) mg∙kg^-1
α1-adrenoceptors; from Ki values of Table 1
  selectivity towards α1-adrenergic receptors: 52 fold
α1-adrenoceptors
  Ki: 0.0059 ± 0.0003 µM
[4]; iv, 0.25 mg·kg^-1
  time after administration in which diastolic blood pressure was decreased: 10 min
  time after administration in which systolic blood pressure was decreased: 20 min
[4]; iv, 0.5 mg∙kg^-1
  time over which diastolic blood pressure was significantly decreased: ≤ 10 min
[4]; iv, 0.5 mg∙kg^-1, throughout the whole observation period
  decrease of systolic blood pressure: 8–14%
[4]; po, 1 mg∙kg^-1
  hypotensive activity: disappeared
[4]; [11]
  decrease of diastolic blood pressure: 11–23%
  decrease of systolic blood pressure: 9–18%
α2-adrenoceptors
  Ki: 0.307 ± 0.0117 µM
